Experimental data published in ChEMBL document CHEMBL1129028 (J Med Chem, 1996).

Columns and labels:
[1] = Partition coefficient; Kp = concentration of test compound in n-octanol/concentration of the test compound in phosphate buffer (pH 7.4); format: physicochemical
Cavia porcellus = species on record: Cavia porcellus; test: Calcium channel antagonist activity against carbachol-induced contractile response in guinea pig ileal longitudinal smooth muscle; format: functional
Mus musculus [2] = test: Anticonvulsant activity in the subcutaneous metrazole (scMet) screen test expressed as the number of animals protected the number of animals tested; scMet at 100 mg/kg after 0.5 hrs; (0/1); format: functional
Mus musculus [3] = test: Anticonvulsant activity in the subcutaneous metrazole (scMet) screen test expressed as the number of animals protected the number of animals tested; scMet at 100 mg/kg after 4 hrs; (0/1); format: functional
Mus musculus [4] = test: Anticonvulsant activity in the subcutaneous metrazole (scMet) screen test expressed as the number of animals protected the number of animals tested; scMet at 300 mg/kg after 0.5 hrs; (0/1); format: functional
Mus musculus [5] = test: Anticonvulsant activity in the subcutaneous metrazole (scMet) screen test expressed as the number of animals protected the number of animals tested; scMet at 300 mg/kg after 4 hrs; (0/1); format: functional
Mus musculus [6] = test: Anticonvulsant activity in the maximal electroshock (MES) screen test expressed as the number of animals protected the number of animals tested; MES at 100 mg/kg after 0.5 hrs; (0/3); format: functional
Mus musculus [7] = test: Anticonvulsant activity in the maximal electroshock (MES) screen test expressed as the number of animals protected the number of animals tested; MES at 100 mg/kg after 4 hrs; (1/3); format: functional
Mus musculus [8] = test: Anticonvulsant activity in the maximal electroshock (MES) screen test expressed as the number of animals protected the number of animals tested; MES at 300 mg/kg after 0.5 hrs; (0/1); format: functional
Mus musculus [9] = test: Anticonvulsant activity in the maximal electroshock (MES) screen test expressed as the number of animals protected the number of animals tested; MES at 300 mg/kg after 4 hrs; (1/1); format: functional
Mus musculus [10] = test: Anticonvulsant activity in the subcutaneous metrazole (scMet) screen test expressed as the number of animals protected to the number of animals tested; scMet at 300 mg/kg; (0/1); format: functional
Mus musculus [11] = test: Anticonvulsant activity in the subcutaneous metrazole (scMet) screen test expressed as the number of animals protected to the number of animals tested; scMet at 100 mg/kg after 0.5 hrs; (0/1); format: functional
Mus musculus [12] = test: Anticonvulsant activity in the subcutaneous metrazole (scMet) screen test expressed as the number of animals protected to the number of animals tested; scMet at 100 mg/kg after 4 hrs; (0/1); format: functional
Mus musculus [13] = test: Anticonvulsant activity in the maximal electroshock (MES) screen test expressed as the number of animals protected to the number of animals tested; MES at 300 mg/kg after 4 hrs; (1/1); format: functional
Mus musculus [14] = test: Anticonvulsant activity in the maximal electroshock (MES) screen test expressed as the number of animals protected to the number of animals tested; MES at 100 mg/kg after 0.5 hrs; (0/3); format: functional
Mus musculus [15] = test: Anticonvulsant activity in the maximal electroshock (MES) screen test expressed as the number of animals protected to the number of animals tested; MES at 100 mg/kg after 4 hrs; (1/3); format: functional
Mus musculus [16] = test: Anticonvulsant activity in the maximal electroshock (MES) screen test expressed as the number of animals protected to the number of animals tested; MES at 300 mg/kg after 0.5 hrs; (0/1); format: functional
Mus musculus [17] = test: Anticonvulsant activity in the subcutaneous metrazole (scMet) screen test expressed as the number of animals protected to the number of animals tested; scMet at 100 mg/kg after 0.5 hrs; (1/1); format: functional
Mus musculus [18] = test: Anticonvulsant activity in the maximal electroshock (MES) screen test expressed as the number of animals protected to the number of animals tested; MES at 100 mg/kg after 0.5 hrs; (2/2); format: functional
Mus musculus [19] = test: Anticonvulsant activity in the subcutaneous metrazole (scMet) screen test expressed as the number of animals protected/ the number of animals tested; scMet at 300 mg/kg after 0.5 hrs; (0/1); format: functional
Mus musculus [20] = test: Anticonvulsant activity in the maximal electroshock (MES) screen test expressed as the number of animals protected / the number of animals tested; MES at 100 mg/kg after 0.5 hrs; (2/3); format: functional
Mus musculus [21] = test: Anticonvulsant activity in the maximal electroshock (MES) screen test expressed as the number of animals protected / the number of animals tested; MES at 100 mg/kg after 4 hrs; (2/3); format: functional
Mus musculus [22] = test: Anticonvulsant activity in the maximal electroshock (MES) screen test expressed as the number of animals protected / the number of animals tested; MES at 300 mg/kg after 0.5 hrs; (1/1); format: functional
Mus musculus [23] = test: Anticonvulsant activity in the subcutaneous metrazole (scMet) screen test expressed as the number of animals protected / the number of animals tested; scMet at 100 mg/kg after 0.5 hrs; (0/1); format: functional
Mus musculus [24] = test: Anticonvulsant activity in the subcutaneous metrazole (scMet) screen test expressed as the number of animals protected / the number of animals tested; scMet at 100 mg/kg after 4 hrs; (0/1); format: functional

CO/C(O)=C1\C(C)=NC(C)=C(C(=O)OCCOC(=O)C2=CN(C)C=CC2)C1c1cccc(Cl)c1Cl (stereo unspecified)
Kp [1]: 366
IC50 (Cavia porcellus): 0.031 µM
No. of animals protected / no animals tested (Mus musculus [2]): 0
No. of animals protected / no animals tested (Mus musculus [3]): 0
No. of animals protected / no animals tested (Mus musculus [4]): 0
No. of animals protected / no animals tested (Mus musculus [5]): 0
No. of animals protected / no animals tested (Mus musculus [6]): 0
No. of animals protected / no animals tested (Mus musculus [7]): 1
No. of animals protected / no animals tested (Mus musculus [8]): 0
No. of animals protected / no animals tested (Mus musculus [9]): 1

COCCOC(=O)C1=C(C)NC(C)=C(C(=O)OC(C)C)C1c1cccc([N+](=O)[O-])c1 (stereo unspecified) [NIMODIPINE]
Kp [1]: 187
IC50 (Cavia porcellus): 0.0149 µM
No. of animals protected / no animals tested (Mus musculus [10]): 0 300mg kg-1
No. of animals protected / no animals tested (Mus musculus [11]): 0 100mg kg-1
No. of animals protected / no animals tested (Mus musculus [12]): 0 100mg kg-1
No. of animals protected / no animals tested (Mus musculus [13]): 1 300mg kg-1
No. of animals protected / no animals tested (Mus musculus [14]): 0 100mg kg-1
No. of animals protected / no animals tested (Mus musculus [15]): 1 100mg kg-1
No. of animals protected / no animals tested (Mus musculus [16]): 0 300mg kg-1

CO/C(O)=C1\C(C)=NC(C)=C(C(=O)OCCO)C1c1cccc(Cl)c1Cl (stereo unspecified)
Kp [1]: 236
IC50 (Cavia porcellus): 0.0304 µM
No. of animals protected / no animals tested (Mus musculus [17]): 1
No. of animals protected / no animals tested (Mus musculus [12]): 0
No. of animals protected / no animals tested (Mus musculus [18]): 2

CCOC(=O)C1=C(C)NC(C)=C(C(=O)OC)C1c1cccc(Cl)c1Cl (stereo unspecified) [FELODIPINE]
Kp [1]: 442
No. of animals protected / no animals tested (Mus musculus [19]): 0
No. of animals protected / no animals tested (Mus musculus [20]): 2
No. of animals protected / no animals tested (Mus musculus [21]): 2
No. of animals protected / no animals tested (Mus musculus [22]): 1
No. of animals protected / no animals tested (Mus musculus [23]): 0
No. of animals protected / no animals tested (Mus musculus [24]): 0
